Assays:
HGC-27 cells [1] = assay: Immunostaining of actin and tubulins in gastric cancer cells; type: cell-based; conditions: 40 μM, 6 hours
Method: Gastric cancer cells (HGC-27 cells) were incubated with 6-shogaol at 2 μg/ml for 6 hours and then fixed, and actin was fluorescent-stained with Alexa Fluor phalloidin (Molecular Probes Inc., Eugene, Oreg.), and tubulins were fluorescent-stained with an anti-tubulin β antibody (Lab Vision Co., Fremont, Calif.) and Alexa Fluor 488 labeled second antibody (Molecular Probes, Inc.).
Gastric cancer cells (HGC-27 cells) were incubated with CH3—CO—CH═CH—(CH2)4—CH3, CH3—CO—(CH2)6—CH3 or CH3—CH2—CH═CH—(CH2)4—CH3 (40 μM) for 6 hours and then fixed, and tubulins were fluorescent-stained with anti-tubulin β antibody (Lab Vision Co., Fremont, Calif.) and Alexa Fluor 488 labeling second antibody (Molecular Probes, Inc.).

tubulins [2] = assay: Tubulin polymerization experiment, absorbance at 340 nm; type: biochemical; conditions: 20 μM tubulins
Method: Polymerization of 20 μM of tubulins was evaluated by measuring an absorbance at a wavelength of 340 nm.
Along with gradually polymerizing tubulins in a polymerization solution (80 mM PIPES, pH 6.9, 2 mM MgCl2, 0.5 mM EGTA, 5% glycerol and 1 mM GTP), an absorbance of the solution at a wavelength of 340 nm increases. The absorbance (340 nm) was measured in every 5 minutes to thus evaluate an influence given to the polymerization.

HGC-27 cells [3] = assay: Viable cell ratio of HGC-27 cells, CellTiter96 cell proliferation assay; type: cell-based; conditions: 0 to 40 μM, 24 hours
Method: 1×10^4 gastric cancer cells (HGC-27 cells) were seeded in 96-well plates, and incubated with CH3—CO—CH═CH—(CH2)4—CH3, CH3—CO—(CH2)6—CH3 or CH3—CH2—CH═CH—(CH2)4—CH3 (0 to 40 μM) for 24 hours from the next day. Cell viability was evaluated in a coloring method using CellTiter96 cell proliferation assay (Promega Co., Madison, Wis.), and an absorbance was measured. In this assay, living cells develop color with a reagent, and as the number of living cells is larger, the absorbance is higher. The viable cell ratio was calculated by (absorbance at each addition concentration)/(absorbance at 0 μM). Therefore, the viable cell ratio was 1.0 on the basis of 0 μM.

tubulins [4] = assay: Tubulin binding experiment, comigration in SDS-PAGE; conditions: for influence on comigration of NBD-PZ-CO—CH═CH—(CH2)5—CH3 with tubulins: compound coexisting with the probe
Method: Tubulins and a fluorescence dye, NBD-PZ or NBD-PZ-CO—CH═CH—(CH2)5—CH3 were reacted and electrophoresis (SDS-PAGE) was then performed. Binding with the tubulins was determined with comigration (fluorescence derived from NBD-PZ was detected with tubulins).

[5] = test system: gastric cancer cells (HGC-27 cells, AGS cells, and KATO III cells); assay: Cell viability of gastric cancer cells, Cell Titer 96 cell proliferation assay; type: cell-based; conditions: 0 to 4 μg/ml, 24 hours, HGC-27, AGS
Method: 1×10^4 gastric cancer cells (HGC-27 cells, AGS cells, and KATO III cells) were seeded in 96 well-plates, and incubated with 6-shogaol (0 to 4 μg/ml) for 24 hours from the next day. Viability of the cells was evaluated in a coloring method using Cell Titer 96 cell proliferation assay (Promega Co., Madison, Wis.), and an absorbance was measured. In this assay, living cells develop color with a reagent, and as the number of living cells is larger, the absorbance is higher. The cell viability was calculated by (absorbance at each addition concentration of 6-shogaol)/(absorbance at 0 μg/ml). Therefore, the viable cell ratio was 1.0 on the basis of 0 μg/ml. 6-shogaol was purchased from Wako Pure Chemical Industries, Ltd. (Osaka, Japan) (purity of 98% or more). Each gastric cancer cell was available from the cell bank in RIKEN BioResource Center (RIKEN BRC cell bank) or ATCC (American Type Culture Collection).

[6] = test system: gastric cancer cells (HGC-27 cells); assay: Effect on tumor of gastric cancer cells transplanted to a nude mouse; type: in vivo; conditions: 400 μl at 0 to 200 μg/ml into the abdominal cavity for 8 days; HGC-27 subcutaneous tumor
Method: 2.5×10^6 gastric cancer cells (HGC-27 cells) were subcutaneously inoculated into the flank of a nude mouse (7-week-old, purchased from Japan SLC, Inc.). After 3 weeks when the tumors had reached an average volume of approximately 40 mm^3, and then 400 μl of 6-shogaol at 0 to 200 μg/ml was administered into the abdominal cavity for 8 days. The tumor volume was measured before the first administration of 6-shogaol and after one day from the eighth administration. Comparing volumes of the tumor before and after administration of 6-shogaol, its magnification was evaluated as a growth ratio of the tumor.

HGC-27 cells [7] = assay: Influence on cell cycle, BrdU flow cytometry; type: cell-based; conditions: 2 μg/ml, 18 hours
Method: 2×10^5 gastric cancer cells (HGC-27 cells) were seeded in 12-well plates and incubated in the presence of 6-shogaol at 2 μg/ml for 18 hours from the next day, and then, further incubated in the presence of 10 μM of BrdU for 2 hours. In order to measure intake of BrdU in nuclei and DNA amounts in the nucleus, the cells were stained using a BrdU flow kit (BD Pharmingen, Inc., San Diego, Calif.). 10000 cells were analyzed with the flow cytometer manufactured by Beckman Coulter, Inc. (Fullerton, Calif.). The cells containing a large amount of DNA and a small amount of BrdU were considered to be in G2-M phase.

[8] = test system: various cancer cells (HGC-27 cells, AGS cells, KATO III cells, Jurkat cells, A549 cells, and SW620 cells); assay: Viability (ED50) of various cancer cells; type: cell-based; conditions: 24 hours culture
Method: (§1) ED50: concentration of 6-shogaol, which decreases the cell viability to 0.5 (50%) as compared with the control.
(§2) ED50 of 6-shogaol was examined on various cancer cells (HGC-27 cells, AGS cells, KATO III cells, Jurkat cells, A549 cells, and SW620 cells) to evaluate whether or not 6-shogaol was also effective for cancer cells other than gastric cancer cells. The culturing time was set to 24 hours.

A549 cells = assay: Viability (ED50) of A549 cells; type: cell-based; conditions: 24 hours culture
Method: as §1, §2

[9] = test system: SH groups contained in tubulins; assay: Quantification of SH groups of tubulin, Ellman method; type: biochemical; conditions: tubulins 2 μM, 100 μM of 6-shogaol
Method: SH groups contained in tubulins are converted to 5,5′-dithiobis-nitrobenzoic acid into thionitrobenzoate, and an absorbance of the solution at a wavelength of 412 nm (Ellman reaction) increases. The absorbance (412 nm) was measured to evaluate an influence given to an amount of SH groups.
An α,β-unsaturated carbonyl compound having a larger molecular weight reacted with more SH groups in the tubulins, and as a result, the amount of the SH groups was decreased and the absorbance (412 nm) was lowered (FIG. 8).

Row | influence on comigration of NBD-PZ-CO—CH═CH—(CH2)5—CH3 with tubulins (tubulins [4]) | Structure (SMILES) | reticulate distribution of tubulins (structure of microtubule) (HGC-27 cells [1]) | polymerization of tubulins (tubulins [2]; 500 μM compound) | viable cell ratio (HGC-27 cells [3]) | further results
1 | – | CCCCCCCC(C)=O [CH3—CO—(CH2)6—CH3] | only CH3—CO—CH═CH—(CH2)4—CH3 inhibited a reticulate distribution of tubulins | gave no influence | only CH3—CO—CH═CH—(CH2)4—CH3 (∘) decreased the viable cell ratio | –
2 | – | CCC=CCCCCC [CH3—CH2—CH═CH—(CH2)4—CH3] | only CH3—CO—CH═CH—(CH2)4—CH3 inhibited a reticulate distribution of tubulins | gave no influence | only CH3—CO—CH═CH—(CH2)4—CH3 (∘) decreased the viable cell ratio | –
3 | did not give an influence on comigration | CCCCC[C@H](O)CC(=O)CCc1ccc(O)c(OC)c1 [6-gingerol] | – | – | – | –
4 | – | CCCCCC=CC(C)=O [CH3—CO—CH═CH—(CH2)4—CH3] | inhibited a reticulate distribution of tubulins | inhibited polymerization of tubulins | decreased the viable cell ratio | polymerization of tubulins (tubulins [2]; 250 μM compound): inhibited polymerization of tubulins
5 | – | CCCCCCC=CC(=O)N1CCN(c2ccc([N+](=O)[O-])c3nonc23)CC1 [NBD-PZ-CO—CH═CH—(CH2)5—CH3] | – | – | – | binding with tubulins (comigration) (tubulins [4]; probe reacted with tubulins, SDS-PAGE): comigrated with the tubulins
6 | the comigration was inhibited | CCCCC/C=C/C(=O)CCc1ccc(O)c(OC)c1 [6-shogaol] | – | – | – | cell viability [5]: decreased the cell viability; growth ratio of tumor [6]: the growth of the tumor was inhibited; ratio of cells in G2-M stage (HGC-27 cells [7]): significantly increased; viability of various cancer cells [8]: decreased the viability; susceptibility to 6-shogaol compared with the other cancer cells (A549 cells): low; amount of SH groups contained in the tubulins [9]: approximately the same effect as 500 μM of CH3—CO—CH═CH—(CH2)5—CH3

Reference: patent US20100286283A1, “MICROTUBULE-DISRUPTNG AGENT AND CANCER CELL PROLIFERATION INHIBITOR CONTAINING THE SAME” (priority 2007, published 2010)
